Test results taken from PMC12663137 (Nature Communications, 2025).
Where “and” joins values, the source holds several entries; their conditions need not be identical. Equal values may be shown once.

Key:
[1] = target: T1, SV2AEM WT or SV2AEM F188A (Homo sapiens, UniProt Q7L0J3); experiment: Dissociation kinetics of 3H-UCB-J (Fig. 4E); type: binding; settings: WT
T1 construct: expressed in transfected cells; host or cells: HEK293 (ATCC CRL-1573), crude membranes
Procedure: (§1) Ligand binding studies were carried out using crude membranes prepared from HEK293 cells (ATCC, CRL-1573) overexpressing mVenus-SV2AWT or SV2AEM. Membranes were prepared either from transiently transfected cells or from baculovirus-infected cells as described previously. Cells were washed with DPBS (Ca^2+ and Mg^2+ free), followed by resuspending in cold SH buffer (10 mM HEPES-Tris pH 7.4, 320 mM sucrose) containing protease inhibitor cocktail (MedChemExpress) to a density of 10^7 cells/ml. This cell suspension was homogenized by passing through a bead homogenizer (Isobiotec) with 10-micron clearance bead on ice. The lysate was then centrifuged at 4000 × g for 5 min at 4 °C, and the supernatant was aliquoted, frozen in liquid nitrogen, and stored at −80 °C. The mVenus fluorescence estimated using fluorescence size-exclusion chromatography (FSEC) was used to normalize expression levels of mVenus-SV2A mutants studied as detailed previously. For all binding studies, membranes containing […] protein (estimated by BCA method) per reaction were used.
After 2 h of incubation, ligand dissociation was initiated with 0.3 µM ^1H-UCB-J and radioactivity was monitored at indicated time points by trapping equal volume of membranes on PEI-treated Unifilter-GF/C 96-well filter plates. Dissociation half-life (t1/2) estimates were obtained by fitting the data to one-phase exponential decay using GraphPad Prism 10.

SV2AEM = target: T2, SV2AEM (Homo sapiens, UniProt Q7L0J3); experiment: Association kinetics of 3H-UCB-J after pre-incubation with UCB1244283 (Fig. 4F); type: binding
T2 construct: expressed in transfected cells; host or cells: HEK293 (ATCC CRL-1573), crude membranes (transient transfection or baculovirus)
T2 sequence (Q7L0J3 141-742): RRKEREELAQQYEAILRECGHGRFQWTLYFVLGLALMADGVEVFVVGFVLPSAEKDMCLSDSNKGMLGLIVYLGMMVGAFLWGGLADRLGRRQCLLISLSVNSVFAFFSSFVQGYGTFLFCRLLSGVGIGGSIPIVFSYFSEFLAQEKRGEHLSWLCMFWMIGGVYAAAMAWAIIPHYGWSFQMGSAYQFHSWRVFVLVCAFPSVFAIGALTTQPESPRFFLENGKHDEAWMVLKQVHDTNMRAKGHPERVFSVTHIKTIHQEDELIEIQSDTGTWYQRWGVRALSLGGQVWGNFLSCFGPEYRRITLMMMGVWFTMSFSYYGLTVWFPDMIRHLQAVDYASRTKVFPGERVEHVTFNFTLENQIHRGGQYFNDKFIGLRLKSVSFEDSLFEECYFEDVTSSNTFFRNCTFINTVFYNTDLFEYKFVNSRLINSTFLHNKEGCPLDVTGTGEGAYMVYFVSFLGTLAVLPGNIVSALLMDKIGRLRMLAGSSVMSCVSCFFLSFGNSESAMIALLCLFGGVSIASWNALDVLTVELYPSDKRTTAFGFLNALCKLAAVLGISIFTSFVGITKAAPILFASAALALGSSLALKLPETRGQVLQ
Procedure: as §1
Residual radioligand binding observed in presence of 10 µM of ^1H-UCB-J was considered as background binding.

T1 sequence (Q7L0J3 141-742 F188A): as the sequence (Q7L0J3 141-742) above, with F48A counted along it

- 3H-UCB-J Binding (%) ([1]; 30 µM UCB1244283, 0 min): 159.90% and 202.86% and 206.18%
- 3H-UCB-J Binding (%) ([1]; 30 µM UCB1244283, 4 min): 62.83% and 91.12% and 108.82%
- 3H-UCB-J Binding (%) ([1]; 30 µM UCB1244283, 5 min): 85.26% and 105.06% and 94.83%
- 3H-UCB-J Binding (%) ([1]; 30 µM UCB1244283, 6 min): 84.91% and 66.93% and 87.39%
- 3H-UCB-J Binding (%) ([1]; 30 µM UCB1244283, 7 min): 43.33% and 65.94% and 53.85%
- 3H-UCB-J Binding (%) ([1]; 30 µM UCB1244283, 8 min): 39.38% and 72.33% and 39.29%
- 3H-UCB-J Binding (%) ([1]; 30 µM UCB1244283, 9 min): 42.32% and 69.81% and 52.93%
- 3H-UCB-J Binding (%) ([1]; 30 µM UCB1244283, 10 min): 57.05% and 78.11% and 55.34%
- 3H-UCB-J Binding (%) ([1]; 30 µM UCB1244283, 20 min): 16.75% and 27.97% and 21.29%
- 3H-UCB-J Binding (%) ([1]; 30 µM UCB1244283, 25 min): 30.01% and 19.16% and 35.10%
- 3H-UCB-J Binding (%) ([1]; 30 µM UCB1244283, 50 min): 2.00% and 8.63% and 4.06%
- 3H-UCB-J Binding (%) ([1]; 30 µM UCB1244283, 60 min): 0.00%
- 3H-UCB-J Binding (%) ([1]; 30 µM UCB1244283, 70 min): 13.54% and 8.21%
- 3H-UCB-J Binding (%) (SV2AEM; pre-incubate 10 μM UCB1244283, 0 min): 0.02% and 0.00168%
- 3H-UCB-J Binding (%) (SV2AEM; pre-incubate 10 μM UCB1244283, 0.5 min): 0.16% and 0.14%
- 3H-UCB-J Binding (%) (SV2AEM; pre-incubate 10 μM UCB1244283, 1 min): 0.20% and 0.18%
- 3H-UCB-J Binding (%) (SV2AEM; pre-incubate 10 μM UCB1244283, 1.5 min): 0.16% and 0.22%
- 3H-UCB-J Binding (%) (SV2AEM; pre-incubate 10 μM UCB1244283, 2 min): 0.23% and 0.25%
- 3H-UCB-J Binding (%) (SV2AEM; pre-incubate 10 μM UCB1244283, 2.5 min): 0.16% and 0.30%
- 3H-UCB-J Binding (%) (SV2AEM; pre-incubate 10 μM UCB1244283, 3 min): 0.29% and 0.33%
- 3H-UCB-J Binding (%) (SV2AEM; pre-incubate 10 μM UCB1244283, 3.5 min): 0.30% and 0.35%
- 3H-UCB-J Binding (%) (SV2AEM; pre-incubate 10 μM UCB1244283, 4 min): 0.29% and 0.36%
- 3H-UCB-J Binding (%) (SV2AEM; pre-incubate 10 μM UCB1244283, 4.5 min): 0.41% and 0.37%
- 3H-UCB-J Binding (%) (SV2AEM; pre-incubate 10 μM UCB1244283, 5 min): 0.39%
- 3H-UCB-J Binding (%) (SV2AEM; pre-incubate 30 μM UCB1244283, 0 min): 0.00112% and 0.00142%
- 3H-UCB-J Binding (%) (SV2AEM; pre-incubate 30 μM UCB1244283, 0.5 min): 0.10%
- 3H-UCB-J Binding (%) (SV2AEM; pre-incubate 30 μM UCB1244283, 1 min): 0.11%
- 3H-UCB-J Binding (%) (SV2AEM; pre-incubate 30 μM UCB1244283, 1.5 min): 0.13% and 0.12%
- 3H-UCB-J Binding (%) (SV2AEM; pre-incubate 30 μM UCB1244283, 2 min): 0.14%
- 3H-UCB-J Binding (%) (SV2AEM; pre-incubate 30 μM UCB1244283, 2.5 min): 0.14% and 0.15%
- 3H-UCB-J Binding (%) (SV2AEM; pre-incubate 30 μM UCB1244283, 3 min): 0.15%
- 3H-UCB-J Binding (%) (SV2AEM; pre-incubate 30 μM UCB1244283, 3.5 min): 0.14% and 0.15%
- 3H-UCB-J Binding (%) (SV2AEM; pre-incubate 30 μM UCB1244283, 4 min): 0.16%
- 3H-UCB-J Binding (%) (SV2AEM; pre-incubate 30 μM UCB1244283, 4.5 min): 0.22% and 0.16%
- 3H-UCB-J Binding (%) (SV2AEM; pre-incubate 30 μM UCB1244283, 5 min): 0.23% and 0.19%
Compound: COc1ccccc1NC(=O)CC(C)Cc1cc(C)cc(C)c1 (centres unmarked) [UCB1244283]
